Seven molecules from patent US20110028686A1, “Protein binding miniature proteins” (Yale University, priority 2000, published 2011) can be followed below.

Where two headings read alike, the source gives them in different places.

Assay [1] deals with T1, HisKIX (His-tagged CBP KIX domain) (Mus musculus, UniProt P45481).
T1 construct: The CBP KIX-coding region (residues 586 to 672) of pGEX-KT KIX 10-672; made in house; host or cells: E. coli BL21(DE3) pArg
Kind of assay: Equilibrium fluorescence polarization, HisKIX binding. Conditions: 25° C.

Assay [2] concerns hsCRE24 (CRE half-site DNA, ATGAC). Briefly: Electrophoretic mobility shift assay, binding to hsCRE24 DNA. To be noted: for DNA binding: EMSA. The procedure:
Miniature protein-binding to DNA was measured using an electrophoretic mobility shift assay performed in a Model SE600 Dual-Controller Vertical Slab Unit (Hoefer) using 14×16 cm gel plates. Temperature was controlled using a constant temperature bath. Reactions were performed in a binding buffer composed of 137 mM NaCl, 2.7 mM KCl, 4.3 mM Na2HPO4, 1.4 mM NaH2PO4 (pH 7.4), 1 mM EDTA, 0.1% NP-40, 0.4 mg/ml BSA (non-acetylated) and 5% glycerol. For experiments involving the bZIP peptide C/EBP152, the binding buffer was supplemented with 2 mM dithiothreitol. Serial peptide dilutions were performed as 1:1 dilutions with binding buffer. In general, 0.002 ml of gamma ^32P-labeled, double-stranded DNA (CRE24, hsCRE24, C/EBP24 or hsCEBP24; final concentration ≦50 pM in binding buffer; final concentration ≦5 pM for peptides with Kapp <500 pM) in binding buffer were added to 0.008 ml of a serial peptide dilution on ice. Peptide-DNA mixtures were incubated for thirty minutes on ice and then applied to a pre-equilibrated, native polyacrylamide gel (8% acrylamide:bisacrylamide) prepared in 10 mM Tris buffer (pH. 8.1). Gels were allowed to run 0.75 to 1.5 hours at 500 V and were dried on a Model SE1160 Drygel Sr. gel dryer (Hoefer). The gels were analyzed using a Storm 840 Phosphorimager (Molecular Dynamics). Amounts of free and bound DNA were quantified and analyzed using the program KaleidaGraph 3.0 (Synergy Software). Dissociation constants were determined by fitting the data to the Langmuir equation=c[(1+(Kapp/peptideT^n))^−1] where n=1 for PPEBP^SR and EBP^SR and n=2 for C/EBP152. In these equations, theta=cpm in protein-DNA complex/(cpm in protein-DNA complex+cpm free DNA); peptideT=the total peptide concentration and c is an adjustable parameter representing the maximum value of theta (c ≦1; for many peptides c was defined as 1). Values reported represent the average of at least three independent trials ±the standard error. Error bars on the plots represent the standard error for each data point.

[3] abbreviates: 4° C., read-out: affinity (Kd) for hsCRE.
The mark [4] stands for this setting: physiological ionic strength, read-out: equilibrium dissociation constant (Kd) of binding to hsCRE.

T1 sequence (P45481 586-672): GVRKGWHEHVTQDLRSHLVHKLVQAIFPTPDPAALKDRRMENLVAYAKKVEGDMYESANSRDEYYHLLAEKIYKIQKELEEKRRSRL

Turning to `CC[C@H](C)[C@H](NC(=O)[C@H](Cc1ccc(O)cc1)NC(=O)[C@H](Cc1ccccc1)NC(=O)[C@H](Cc1ccccc1)NC(=O)[C@H](COP(=O)(O)O)NC(=O)[C@H](CC(C)C)NC(=O)[C@H](CCCNC(=N)N)NC(=O)[C@H](CCCNC(=N)N)NC(=O)[C@@H](NC(=O)[C@@H]1CCCN1C(=O)[C@H](C)NC(=O)[C@H](CC(=O)O)NC(=O)[C@H](CC(=O)O)NC(=O)CNC(=O)[C@H](Cc1c[nH]cn1)NC(=O)[C@H](Cc1ccc(O)cc1)NC(=O)[C@@H](NC(=O)[C@@H]1CCCN1C(=O)[C@H](Cc1c[nH]c2ccccc12)NC(=O)[C@H](CO)NC(=O)[C@H](CC(C)C)NC(=O)CN)[C@@H](C)O)C(C)C)C(=O)N[C@@H](CC(C)C)C(=O)N[C@@H](CC(C)C)C(=O)N[C@@H](CC(=O)O)C(=O)N[C@@H](CC(C)C)C(=O)N[C@@H](Cc1ccc(O)cc1)C(=O)N[C@@H](CC(C)C)C(=O)N[C@@H](CC(=O)O)C(=O)N[C@@H](C)C(=O)N1CCC[C@H]1C(=O)NCC(=O)N[C@H](C(=O)N[C@@H](CSCC(=O)Nc1ccc2c(c1)C(=O)OC21c2ccc(O)cc2Oc2cc(O)ccc21)C(N)=O)C(C)C` [PPKID5], the equilibrium dissociation constant (Kd) amounted to 534 ± 31 nM in assay [1] (fluorescein-labeled phosphopeptide, read-out: Kd HisKIX, phosphorylated peptide (P)) and 6600 ± 2000 nM in assay [1] (fluorescein-labeled unphosphorylated peptide, read-out: Kd HisKIX, unphosphorylated peptide (U)).

As for “DPAALKRARNTEAARRSRARKLQRMQC [G27, reference compound]”, in assay [2], the “stability of hsCRE24 complex lower than that of PPBR4^SR-hsCRE24 complex” value turned out to be 3.1 kcal/mol and the “DNA binding at 25° C.” value is listed as “Neither PPBR4 nor G27 showed evidence of DNA binding”. Also, the Kd in assay [2] (setting [3]) stood at 410 ± 53 nM.

“GPSQPTYPGDDAPVEDLKRFRNTLAARRSRARKAARAAA [PPBR4^SR]”: in assay [2], the “delta, delta-G, hsCRE24 in preference to hsCEBP24” value was -4.4 kcal/mol; the “ratio of protein concentrations required to bind one-half of the two DNA” value came out at 2600; the “DNA binding at 25° C.” value is “Neither PPBR4 nor G27 showed evidence of DNA binding”. Also, the “delta, delta-G of discrimination against mutations at the 5′ terminus of hsCRE” value in assay [2] (4° C.) is -1.7 kcal/mol. Moreover, the Kd in assay [2] (setting [3]) is 1.9 ± 0.2 nM. The “specificity ratio Krel, hsCRE24 in preference to hsCEBP24” value in assay [2] (Krel (Kd(hsCRE)/Kd(hsCEPB))) was 2600. Moreover, the “formation of the hsCRE24 complex in presence of competitor DNA” value in assay [2] (high concentrations of poly (dIdC)-(dIdC) or a scrambled CRE site (NON)) was “unaffected”. In assay [2] (setting [4]), the Kd was 1.5 nM.

Turning to “GPSQPTYPGDDAPVEDLKRFRNTLAARRSRARKLQRMKQ [PPBR2^SR]”, the Kd in assay [2] (setting [4]) worked out at 5 nM.

As to “PPBR10^SR: polyproline helix-basic region peptide, SEQ ID NO: 9 (GPSQPTYPGDDAPVEDLKRFRNTLAAYLSRLRKAARAAA; Pancreatic polypeptide basic region PPBR10)”, the DNA binding entry in assay [2] is “No significant DNA binding was detected”.

As to “PPBR11^SR: polyproline helix-basic region peptide, SEQ ID NO: 10 (GPSQPTYPGDDAPVEDLKRFRNTLAARLSRLRKAARAAA; Pancreatic polypeptide basic region PPBR11)”, the DNA binding result in assay [2] was “No significant DNA binding was detected”.

“PPBRO^SR: polyproline helix-basic region peptide, SEQ ID NO: 8, lacking DNA-contact residue(s) (GPSQPTYPGDDAPVEDLKRFRNTLAAYLSVVRKLQRMKQ; Pancreatic polypeptide basic region PPBR0)”: the DNA binding result in assay [2] is recorded as “No significant DNA binding was detected”.
